Laboratory results taken from US12331044B2, “Inhibitors of histone deacetylase useful for the treatment or prevention of HIV infection” (Merck Sharp & Dohme LLC, priority 2018, dated 2025).
Read-outs that look alike come from different tables or passages of the source.

Legend:
[1] = target: human HDAC8 (Homo sapiens (Human), UniProt Q9BY41); test: HDAC8 inhibition assay (modified FLUOR DE LYS, 384-well); format: biochemical; details: 200 μM substrate BML-KI178, 3 h pre-incubation, read-out: HDAC8 IC50
human HDAC8, sequence (Q9BY41 whole entry): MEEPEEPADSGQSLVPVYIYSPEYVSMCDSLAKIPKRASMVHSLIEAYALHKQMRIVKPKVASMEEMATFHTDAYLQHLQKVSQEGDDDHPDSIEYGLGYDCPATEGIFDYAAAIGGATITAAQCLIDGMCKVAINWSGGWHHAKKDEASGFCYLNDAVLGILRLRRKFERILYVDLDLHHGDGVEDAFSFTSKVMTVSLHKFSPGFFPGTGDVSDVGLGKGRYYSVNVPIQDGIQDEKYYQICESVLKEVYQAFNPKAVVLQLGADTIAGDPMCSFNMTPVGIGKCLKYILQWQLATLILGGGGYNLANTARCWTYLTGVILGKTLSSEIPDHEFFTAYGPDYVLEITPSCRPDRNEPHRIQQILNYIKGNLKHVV

[2] = target: T1, HDAC6 (Homo sapiens (Human), UniProt Q9UBN7); test: biochemical
T1 sequence (Q9UBN7 whole entry): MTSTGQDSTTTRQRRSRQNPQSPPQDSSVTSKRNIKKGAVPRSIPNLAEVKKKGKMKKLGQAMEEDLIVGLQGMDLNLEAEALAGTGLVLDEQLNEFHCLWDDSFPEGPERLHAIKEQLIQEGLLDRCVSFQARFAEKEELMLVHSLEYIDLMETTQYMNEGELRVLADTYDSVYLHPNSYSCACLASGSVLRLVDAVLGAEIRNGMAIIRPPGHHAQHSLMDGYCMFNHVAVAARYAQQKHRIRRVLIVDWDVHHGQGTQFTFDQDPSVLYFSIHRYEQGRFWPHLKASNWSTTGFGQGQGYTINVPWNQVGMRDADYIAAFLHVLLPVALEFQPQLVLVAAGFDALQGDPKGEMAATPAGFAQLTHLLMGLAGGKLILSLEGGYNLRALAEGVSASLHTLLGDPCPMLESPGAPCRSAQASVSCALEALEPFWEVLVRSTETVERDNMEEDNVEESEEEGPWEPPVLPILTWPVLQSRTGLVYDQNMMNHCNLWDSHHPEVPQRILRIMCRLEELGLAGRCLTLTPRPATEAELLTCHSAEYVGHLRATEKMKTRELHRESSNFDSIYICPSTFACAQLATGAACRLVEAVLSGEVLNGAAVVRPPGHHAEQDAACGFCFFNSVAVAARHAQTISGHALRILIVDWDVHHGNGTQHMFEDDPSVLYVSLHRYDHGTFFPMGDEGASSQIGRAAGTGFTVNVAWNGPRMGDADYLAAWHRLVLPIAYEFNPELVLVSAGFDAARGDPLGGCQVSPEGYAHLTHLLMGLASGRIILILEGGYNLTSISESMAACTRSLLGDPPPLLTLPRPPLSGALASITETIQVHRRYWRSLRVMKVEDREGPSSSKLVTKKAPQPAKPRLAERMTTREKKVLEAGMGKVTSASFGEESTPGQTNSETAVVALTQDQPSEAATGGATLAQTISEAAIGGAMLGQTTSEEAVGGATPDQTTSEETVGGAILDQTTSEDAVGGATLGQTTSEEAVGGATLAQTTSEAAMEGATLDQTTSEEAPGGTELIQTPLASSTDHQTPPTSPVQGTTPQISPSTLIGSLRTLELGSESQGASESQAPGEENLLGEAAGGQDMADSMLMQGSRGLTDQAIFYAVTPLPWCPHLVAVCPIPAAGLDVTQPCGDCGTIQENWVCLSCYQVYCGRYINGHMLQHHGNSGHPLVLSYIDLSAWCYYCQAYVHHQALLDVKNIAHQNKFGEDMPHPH
Method: (§1) The histone deacetylase activities of HDAC1, HDAC2, HDAC3, HDAC6, and HDAC8 were measured in modified FLUOR DE LYS assays in 384-well format. In this assay, HDAC enzymes are initially incubated with an F-acetyl (or -trifluoroacetyl)-L-lysine-containing substrate with a C-terminal amide having aminomethylcoumarin as the amine component. HDACs cleave the F-acetyl group, rendering the resulting product susceptible to AMC cleavage by trypsin. The released AMC is then detected by its fluorescence. […] All steps were performed at room temperature (23° C.). The assay was performed by pre-incubating serial dilutions of test compounds with the target HDAC prior to initiation with substrate. […] Final conditions used for each assay were: 1. […] The reactions were stopped and developed by addition of 30 ul of HDAC developer solution containing a saturating level of HDAC inhibitor as follows: 1. […] For data analysis, background subtracted product (fluorescence) vs. time data for each inhibitor concentration was fitted using a 4-parameter fit.

[3] = target: human HDAC2 (Homo sapiens (Human), UniProt Q92769); test: HDAC2 inhibition assay (modified FLUOR DE LYS, 384-well); format: biochemical; details: 40 μM substrate BML-KI104, 3 h pre-incubation, read-out: HDAC2 IC50
human HDAC2, sequence (Q92769 whole entry): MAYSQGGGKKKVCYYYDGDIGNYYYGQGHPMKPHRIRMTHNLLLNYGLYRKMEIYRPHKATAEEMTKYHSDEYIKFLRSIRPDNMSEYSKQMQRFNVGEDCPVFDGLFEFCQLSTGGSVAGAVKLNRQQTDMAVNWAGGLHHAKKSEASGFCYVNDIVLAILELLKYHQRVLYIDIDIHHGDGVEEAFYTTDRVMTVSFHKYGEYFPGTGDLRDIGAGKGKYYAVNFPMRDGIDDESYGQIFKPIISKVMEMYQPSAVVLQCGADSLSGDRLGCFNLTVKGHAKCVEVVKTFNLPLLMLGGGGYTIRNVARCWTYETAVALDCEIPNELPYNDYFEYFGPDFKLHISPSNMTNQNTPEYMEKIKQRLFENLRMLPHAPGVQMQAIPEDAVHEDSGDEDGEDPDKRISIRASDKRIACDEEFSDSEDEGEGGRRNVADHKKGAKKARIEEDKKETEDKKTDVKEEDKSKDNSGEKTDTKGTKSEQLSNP

[4] = tested on: KARN cells (Jurkat 2C4); test: cells; details: Homo sapiens
Method: KARN Assay Cell Maintenance
KARN cells (Jurkat 2C4) were licensed from the laboratory of Dr. John Karn, Case Western Reserve University, School of Medicine. […] An atmosphere of 5% CO2 and 90% humidity was used for all culture work.
These flasks were returned to the incubator.
The cells were gently resuspended in assay media (30 ml) and pelleted again. […] The cells were counted using the ViCell (Beckman Coulter) and diluted as necessary. […] The plates were covered and returned to the incubator prior to compound addition.
The reference compounds, DMSO and SAHA were then added to the compound plate. […] The final high concentration for SAHA and the test compounds in the assays was 40 μM. The final DMSO concentration in all wells was 0.4%. The minimal induction reference compound used was DMSO and the maximal induction reference compound used was SAHA (2 μM final concentration in the assay).
Day 3: The luciferase detection reagent was prepared by transferring the contents of one bottle of Steady-Glo buffer to one bottle of Steady-Glo aubstrate (Steady-Glo Luciferase Assay System, Promega, catalog number E2520), followed by gently mixing until the substrate was thoroughly dissolved and the solution was equilibrated to room temperature. […] The Steady-Glo Reagent was added to the plates (30 μl/well), which were then covered with a black lid and incubated for 10 minutes at room temperature. The plates were then read for luminescence on an Envision (Perkin Elmer) using the ultrasensitive mode (US LUM), 0.1 counts per second and 384-well aperture. Luminescence counts in the DMSO reference wells were considered as 0% induction, while those in the 2 μM SAHA reference wells were considered as 100% induction. Dose response curves were plotted as test compound concentration (X-axis) vs. percent activation (Y-axis) using a 4-parameter fit based on the Levenberg-Marquardt algorithm.

[5] = target: T2, human HDAC1 (Homo sapiens (Human), UniProt Q13547); test: biochemical
T2 sequence (Q13547 whole entry): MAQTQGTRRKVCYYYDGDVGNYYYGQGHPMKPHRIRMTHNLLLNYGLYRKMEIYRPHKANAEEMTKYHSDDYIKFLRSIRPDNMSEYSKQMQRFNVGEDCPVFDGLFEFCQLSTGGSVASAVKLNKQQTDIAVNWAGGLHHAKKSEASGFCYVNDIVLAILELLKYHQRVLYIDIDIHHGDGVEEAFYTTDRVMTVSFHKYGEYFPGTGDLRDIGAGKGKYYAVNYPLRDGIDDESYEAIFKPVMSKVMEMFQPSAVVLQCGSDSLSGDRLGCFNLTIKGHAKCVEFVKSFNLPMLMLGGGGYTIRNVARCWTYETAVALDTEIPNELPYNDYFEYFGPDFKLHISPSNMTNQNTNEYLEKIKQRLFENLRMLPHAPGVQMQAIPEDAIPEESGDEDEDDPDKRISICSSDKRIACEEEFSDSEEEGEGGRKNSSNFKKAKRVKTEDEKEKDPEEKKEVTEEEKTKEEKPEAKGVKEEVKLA

[6] = target: human HDAC3/SMRT heterodimer (Homo sapiens (Human), UniProt O15379)
human HDAC3/SMRT heterodimer, sequence (O15379 whole entry): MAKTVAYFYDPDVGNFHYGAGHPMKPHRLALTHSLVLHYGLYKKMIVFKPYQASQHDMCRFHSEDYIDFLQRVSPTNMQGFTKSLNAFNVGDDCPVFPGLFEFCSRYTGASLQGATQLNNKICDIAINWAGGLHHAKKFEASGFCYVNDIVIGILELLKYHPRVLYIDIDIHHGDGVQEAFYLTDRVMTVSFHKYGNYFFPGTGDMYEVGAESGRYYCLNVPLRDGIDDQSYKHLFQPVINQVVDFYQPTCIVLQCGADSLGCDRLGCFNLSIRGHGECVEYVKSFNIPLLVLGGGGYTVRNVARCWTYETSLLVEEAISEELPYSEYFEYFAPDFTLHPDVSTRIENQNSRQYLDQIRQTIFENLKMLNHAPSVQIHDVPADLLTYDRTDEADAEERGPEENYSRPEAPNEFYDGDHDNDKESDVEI
human HDAC3/SMRT heterodimer, sequence (Q9Y618 1-899 partner): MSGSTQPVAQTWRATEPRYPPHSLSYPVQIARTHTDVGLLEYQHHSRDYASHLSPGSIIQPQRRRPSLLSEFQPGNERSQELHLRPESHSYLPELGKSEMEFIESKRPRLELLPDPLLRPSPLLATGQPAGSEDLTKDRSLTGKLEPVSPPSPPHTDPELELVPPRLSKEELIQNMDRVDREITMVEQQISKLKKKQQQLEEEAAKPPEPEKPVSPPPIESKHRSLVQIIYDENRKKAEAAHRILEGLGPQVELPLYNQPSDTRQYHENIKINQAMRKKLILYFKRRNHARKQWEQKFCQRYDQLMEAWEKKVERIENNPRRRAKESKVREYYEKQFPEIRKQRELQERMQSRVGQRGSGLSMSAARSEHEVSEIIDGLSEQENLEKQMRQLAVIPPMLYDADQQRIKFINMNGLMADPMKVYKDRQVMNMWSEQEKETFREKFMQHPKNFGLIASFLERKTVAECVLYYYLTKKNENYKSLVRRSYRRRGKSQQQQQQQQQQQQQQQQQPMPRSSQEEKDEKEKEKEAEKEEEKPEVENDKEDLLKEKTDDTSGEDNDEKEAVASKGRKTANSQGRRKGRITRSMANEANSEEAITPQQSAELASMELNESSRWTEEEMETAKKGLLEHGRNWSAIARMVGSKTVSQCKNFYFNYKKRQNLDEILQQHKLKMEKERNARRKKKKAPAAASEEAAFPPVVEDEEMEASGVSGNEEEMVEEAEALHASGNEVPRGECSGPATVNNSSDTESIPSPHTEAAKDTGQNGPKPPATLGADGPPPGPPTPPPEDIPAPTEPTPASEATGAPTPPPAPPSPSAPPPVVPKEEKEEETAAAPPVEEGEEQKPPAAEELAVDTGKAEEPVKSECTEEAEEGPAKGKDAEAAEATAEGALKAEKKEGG

[7] = target: T1, HDAC6
Method: as §1

[8] = target: T2, human HDAC1
[9] = read-out: Karn EC50 nM 0.1% NHS, 0.1% normal human serum, luciferase induction, 2 μM SAHA = 100%
[10] = read-out: Karn EC50 nM 5% NHS, 5% normal human serum, luciferase induction, 2 μM SAHA = 100%

Row | SMILES | IC50 ([1]; […] nM enzyme) | IC50 [2] | IC50 ([3]; […] nM enzyme) | EC50 [4, 9] | EC50 [4, 10] | IC50 [5] | IC50 ([1]; […] enzyme) | IC50 ([3]; […] enzyme) | IC50 [6] | IC50 [7] | IC50 [8]
1 | Cc1ccc2cc(-c3c[nH]c([C@@H](N)CCCCCC(=O)c4ncco4)n3)ccc2n1 [Example 9, (S)-7-amino-7-(4-(2-methylquinolin-6-yl)-1H-imidazol-2-yl)-1-(oxazol-2-yl)heptan-1-one] | 2000 nM | 2300 nM | 12 nM | 160 nM | 160 nM | 2.4 nM | – | – | – | – | –
2 | COc1cc2nc(C)ccc2cc1-c1cnc([C@@H](N)CCCCCC(=O)c2ncco2)o1 [Example 27, (S)-7-amino-7-(5-(7-methoxy-2-methylquinolin-6-yl)oxazol-2-yl)-1-(oxazol-2-yl)heptan-1-one] | 1200 nM | 1110 nM | 9.5 nM | 120 nM | 140 nM | 1.9 nM | – | – | – | – | –
3 | COc1cc2ncccc2cc1-c1c[nH]c([C@@H](N)CCCCCC(=O)c2ccon2)n1 [Example 34, (S)-7-amino-1-(isoxazol-3-yl)-7-(4-(7-methoxyquinolin-6-yl)-1H-imidazol-2-yl)heptan-1-one] | 120 nM | 5600 nM | 5.1 nM | 23 nM | 44 nM | 1.4 nM | – | – | – | – | –
4 | N[C@@H](CCCCCC(=O)c1cocn1)c1ncc(-c2ccccc2F)[nH]1 [Example 36, (S)-7-amino-7-(5-(2-fluorophenyl)-1H-imidazol-2-yl)-1-(oxazol-4-yl)heptan-1-one] | > 900 nM | > 900 nM | – | – | – | – | – | – | – | – | –
5 | COc1cc2nc(C)ccc2cc1-c1cnc([C@H](CCCCCC(=O)c2ncco2)NC(=O)C2COC(c3ccccc3)CO2)[nH]1 (stereo partly drawn) [Example 172, N-[(1S)-1-[5-(7-methoxy-2-methylquinolin-6-yl)-1H-imidazol-2-yl]-7-(1,3-oxazol-2-yl)-7-oxoheptyl]-5-phenyl-1,4-dioxane-2-carboxamide] | – | – | – | 340 nM | 990 nM | – | 490 nM | 100 nM | 6.4 nM | > 900 nM | 20 nM
6 | COc1cc2nc(C)ccc2cc1-c1cnc([C@H](CCCCCC(=O)c2ncco2)NC(=O)C2COCCO2)[nH]1 (stereo partly drawn) [Example 173, N-[(1S)-1-[5-(7-methoxy-2-methylquinolin-6-yl)-1H-imidazol-2-yl]-7-(1,3-oxazol-2-yl)-7-oxoheptyl]-1,4-dioxane-2-carboxamide] | – | – | – | 42 nM | 74 nM | – | 83 nM | 3.2 nM | 0.43 nM | > 900 nM | 1.1 nM
7 | COc1cc(-c2cnc([C@H](CCCCCC(=O)c3ncco3)NC(=O)C3CN(C)C3)[nH]2)c(F)cn1 [Example 178, N-[(1S)-1-[5-(5-fluoro-2-methoxypyridin-4-yl)-1H-imidazol-2-yl]-7-(1,3-oxazol-2-yl)-7-oxoheptyl]-1-methylazetidine-3-carboxamide] | – | – | – | 80 nM | 1000 nM | – | 83 nM | 7.8 nM | 1.5 nM | 5300 nM | 2 nM
8 | CCN1CCC2(CC1)C[C@@H]2C(=O)N[C@@H](CCCCCC(=O)c1ncco1)c1ncc(-c2cc(OC)ncc2F)[nH]1 [Example 179, (1S)-6-ethyl-N-[(1S)-1-[5-(5-fluoro-2-methoxypyridin-4-yl)-1H-imidazol-2-yl]-7-(1,3-oxazol-2-yl)-7-oxoheptyl]-6-azaspiro[2.5]octane-1-carboxamide] | – | – | – | 36 nM | 48 nM | – | 65 nM | 7.1 nM | 1.5 nM | 4300 nM | 2.3 nM
9 | CCN1CCC2(CC1)C[C@@H]2C(=O)N[C@@H](CCCCCC(=O)c1ncco1)c1ccn(-c2ccc3nn(C)cc3c2)n1 [Example 180, (1S)-6-ethyl-N-[(1S)-1-[1-(2-methyl-2H-indazol-5-yl)-1H-pyrazol-3-yl]-7-(1,3-oxazol-2-yl)-7-oxoheptyl]-6-azaspiro[2.5]octane-1-carboxamide] | – | – | – | 200 nM | 190 nM | – | 170 nM | 5.2 nM | 1.5 nM | > 900 nM | 0.9 nM
10 | CN1CC(C(=O)N[C@@H](CCCCCC(=O)c2ncco2)c2ncc(-c3cc(OC4CCC4)ccc3F)[nH]2)C1 [Example 181, N-[(1S)-1-{5-[5-(cyclobutyloxy)-2-fluorophenyl]-1H-imidazol-2-yl}-7-(1,3-oxazol-2-yl)-7-oxoheptyl]-1-methylazetidine-3-carboxamide] | – | – | – | 84 nM | 630 nM | – | 12 nM | 13 nM | 1 nM | > 900 nM | 2.6 nM
11 | CCN1CCC2(CC1)C[C@@H]2C(=O)N[C@@H](CCCCCC(=O)c1ncco1)c1ncc(-c2cc(OC3CCC3)ccc2F)[nH]1 [Example 182, (1S)-N-[(1S)-1-{5-[5-(cyclobutyloxy)-2-fluorophenyl]-1H-imidazol-2-yl}-7-(1,3-oxazol-2-yl)-7-oxoheptyl]-6-ethyl-6-azaspiro[2.5]octane-1-carboxamide] | – | – | – | 41 nM | 190 nM | – | 5.6 nM | 9.1 nM | 0.79 nM | > 900 nM | 2 nM
12 | CCN1CCC2(CC1)C[C@@H]2C(=O)N[C@@](C)(CCCCCC(=O)c1ccon1)c1ncc(-c2ccccc2F)[nH]1 [Example 183, (S)-6-ethyl-N-((S)-2-(5-(2-fluorophenyl)-1H-imidazol-2-yl)-8-(isoxazol-3-yl)-8-oxooctan-2-yl)-6-azaspiro[2.5]octane-1-carboxamide] | – | – | – | 37 nM | 37 nM | – | 550 nM | 2.3 nM | 0.48 nM | 43000 nM | 0.56 nM
13 | CN1CCC2(CC1)C[C@@H]2C(=O)N[C@@H](CCCCCC(=O)c1ncco1)c1[nH]c(-c2ccc(F)cc2)nc1C#N [Example 187, (S)-N-((S)-1-(4-cyano-2-(4-fluorophenyl)-1H-imidazol-5-yl)-7-(oxazol-2-yl)-7-oxoheptyl)-6-methyl-6-azaspiro[2.5]octane-1-carboxamide] | – | – | – | 20 nM | 25 nM | – | 170 nM | 0.83 nM | 0.16 nM | 45000 nM | 0.16 nM
14 | CN1CCC2(CC1)C[C@@H]2C(=O)N[C@@H](CCCCCC(=O)c1ncco1)c1oc(-c2ccc(F)cc2)nc1C#N [Example 191, (S)-N-((S)-1-(4-cyano-2-(4-fluorophenyl)oxazol-5-yl)-7-(oxazol-2-yl)-7-oxoheptyl)-6-methyl-6-azaspiro[2.5]octane-1-carboxamide] | – | – | – | 110 nM | 100 nM | – | 2300 nM | 12 nM | 1.9 nM | 45000 nM | 2.5 nM
15 | CN1CCC2(CC1)C[C@@H]2C(=O)N[C@@H](CCCCCC(=O)c1ccon1)c1nc(Cl)c(-c2ccc(F)cc2)[nH]1 [Example 195, (S)-N-((S)-1-(4-chloro-5-(4-fluorophenyl)-1H-imidazol-2-yl)-7-(isoxazol-3-yl)-7-oxoheptyl)-6-methyl-6-azaspiro[2.5]octane-1-carboxamide 2,3-dihydroxysuccinate] | – | – | – | 1.4 nM | 1.9 nM | – | 9.6 nM | 0.32 nM | 0.046 nM | 3100 nM | 0.14 nM
